The text below walks through data of patent publication US20230263903A1, “PYRAZOLOAZEPINE IMMUNOCONJUGATES, AND USES THEREOF” (BOLT BIOTHERAPEUTICS, INC., priority 2020, published 2023).

The target of data set [1] is T1, human TLR7 (Homo sapiens, UniProt Q9NYK1).
T1 construct: host or cells: HEK293 NF-kB reporter cells
T1 sequence (Q9NYK1 27-1049): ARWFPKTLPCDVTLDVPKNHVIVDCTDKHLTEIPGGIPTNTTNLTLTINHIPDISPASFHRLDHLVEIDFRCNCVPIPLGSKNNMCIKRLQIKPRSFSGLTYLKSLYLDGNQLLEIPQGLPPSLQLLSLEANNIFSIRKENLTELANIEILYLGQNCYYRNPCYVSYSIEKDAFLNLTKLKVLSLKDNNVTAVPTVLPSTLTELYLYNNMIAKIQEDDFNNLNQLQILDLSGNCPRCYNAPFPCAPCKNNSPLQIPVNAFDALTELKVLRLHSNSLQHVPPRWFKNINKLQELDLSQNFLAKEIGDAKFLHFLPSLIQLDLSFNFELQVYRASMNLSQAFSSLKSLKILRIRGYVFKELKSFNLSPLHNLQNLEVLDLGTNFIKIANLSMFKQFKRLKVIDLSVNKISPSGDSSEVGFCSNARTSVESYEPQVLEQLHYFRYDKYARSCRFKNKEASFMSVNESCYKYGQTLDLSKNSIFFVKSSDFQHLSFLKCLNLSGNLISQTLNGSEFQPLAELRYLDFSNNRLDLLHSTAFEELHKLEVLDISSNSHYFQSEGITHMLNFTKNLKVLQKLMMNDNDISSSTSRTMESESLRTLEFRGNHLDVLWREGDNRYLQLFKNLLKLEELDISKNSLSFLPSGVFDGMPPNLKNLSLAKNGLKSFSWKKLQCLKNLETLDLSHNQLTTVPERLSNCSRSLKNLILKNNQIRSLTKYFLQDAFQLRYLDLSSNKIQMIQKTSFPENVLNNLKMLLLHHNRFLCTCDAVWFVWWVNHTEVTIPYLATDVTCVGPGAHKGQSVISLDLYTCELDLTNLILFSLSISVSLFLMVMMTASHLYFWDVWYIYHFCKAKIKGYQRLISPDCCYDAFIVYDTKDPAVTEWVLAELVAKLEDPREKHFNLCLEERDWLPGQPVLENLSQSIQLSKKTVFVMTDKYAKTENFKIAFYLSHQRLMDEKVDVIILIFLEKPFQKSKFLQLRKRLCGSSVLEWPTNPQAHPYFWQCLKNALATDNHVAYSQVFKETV
Description: HEK Reporter Assay, HEK293 cells expressing human TLR7. The class given is cell-based. The settings on record: for EC50: HEK293 NFKB reporter cells expressing human TLR7, read-out: HEK293 hTLR7 EC50; for TLR7 activity relative to known TLR7 adjuvant C-1: HEK human TLR7 activity at 24 hours, FIG. 1. The method, then:
(§1) Activity against HEK293 NFKB reporter cells expressing human TLR7 or human TLR8 was measured according to Example 202.
(§2) Example 202 HEK Reporter Assay
(§3) HEK293 reporter cells expressing human TLR7 or human TLR8 were purchased from Invivogen and vendor protocols were followed for cellular propagation and experimentation. Briefly, cells were grown to 80-85% confluence at 5% CO2 in DMEM supplemented with 10% FBS, Zeocin, and Blasticidin. Cells were then seeded in 96-well flat plates at 4×10^4 cells/well with substrate containing HEK detection medium and immunostimulatory molecules.
A general note: Reporter assays use an easily measured gene product as a stand-in for the process of interest.

Data set [2] concerns the target T2, human TLR8 (Homo sapiens, UniProt Q9NR97).
T2 construct: host or cells: HEK293 NF-kB reporter cells
T2 sequence (Q9NR97 27-1041): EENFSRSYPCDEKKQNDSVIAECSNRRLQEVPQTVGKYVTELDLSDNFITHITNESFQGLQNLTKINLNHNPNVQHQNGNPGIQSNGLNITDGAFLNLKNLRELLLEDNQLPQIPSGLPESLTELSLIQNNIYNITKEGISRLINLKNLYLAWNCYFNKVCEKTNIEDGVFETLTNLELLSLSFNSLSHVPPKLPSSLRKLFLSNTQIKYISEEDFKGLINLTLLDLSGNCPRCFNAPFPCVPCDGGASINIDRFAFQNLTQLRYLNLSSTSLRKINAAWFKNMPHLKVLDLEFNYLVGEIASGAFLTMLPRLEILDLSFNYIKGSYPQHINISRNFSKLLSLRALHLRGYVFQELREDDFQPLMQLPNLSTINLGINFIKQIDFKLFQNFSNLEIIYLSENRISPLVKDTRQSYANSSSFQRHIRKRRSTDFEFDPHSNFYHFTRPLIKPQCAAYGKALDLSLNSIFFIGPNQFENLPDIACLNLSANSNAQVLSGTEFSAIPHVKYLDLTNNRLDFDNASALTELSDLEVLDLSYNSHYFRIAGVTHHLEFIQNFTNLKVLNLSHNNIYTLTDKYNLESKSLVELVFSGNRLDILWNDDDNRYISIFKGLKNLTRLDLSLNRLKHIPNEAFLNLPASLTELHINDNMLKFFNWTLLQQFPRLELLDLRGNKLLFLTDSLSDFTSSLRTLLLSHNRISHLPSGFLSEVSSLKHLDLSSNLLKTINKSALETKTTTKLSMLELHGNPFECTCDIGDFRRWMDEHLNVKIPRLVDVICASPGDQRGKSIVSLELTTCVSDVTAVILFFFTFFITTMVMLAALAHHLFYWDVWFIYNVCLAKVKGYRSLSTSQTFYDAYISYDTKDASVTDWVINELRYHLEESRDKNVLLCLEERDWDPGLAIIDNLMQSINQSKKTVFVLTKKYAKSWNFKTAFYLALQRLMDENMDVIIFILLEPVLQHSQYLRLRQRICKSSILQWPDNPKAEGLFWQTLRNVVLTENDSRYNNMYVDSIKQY
Description: HEK Reporter Assay, HEK293 cells expressing human TLR8. Format: cell-based. The settings on record: for EC50: HEK293 NFKB reporter cells expressing human TLR8, read-out: HEK293 hTLR8 EC50. The method, then:
as §1, §2, §3

Data set [3] can be described thus: Hydrophilicity comparison with comparator C-2. The class given is physicochemical.

As to `CCCN(CCC)C(=O)C1=Cc2nn(CCCCCN)cc2N=C(N)C1` [PAZ-3], the EC50 in data set [1] and in data set [2] was more than 9 µM in each case.

In the case of `CCCN(CCCNC(=O)CC(C)(C)C)C(=O)C1=Cc2nn(CCCCCNC(=O)OC(C)(C)C)cc2N=C(N)C1` [PAZ-10, tert-butyl N-[5-[5-amino-7-[3-(3,3-dimethylbutanoylamino)propyl-propyl-carbamoyl]-6H-pyrazolo[4,3-b]azepin-2-yl]pentyl]carbamate], the EC50 – broadly, the concentration needed to bring the measured effect to its halfway point – in data set [1] is more than 9 µM; in data set [2], 3.23 µM.

Turning to `CCCN(OCC)C(=O)C1=Cc2c(cnn2CCCCCN)N=C(N)C1` [PAZ-12, 5-amino-1-(5-aminopentyl)-N-ethoxy-N-propyl-6H-pyrazolo[4,3-b]azepine-7-carboxamide], the results for the EC50 in data set [1] and in data set [2] were 3.21 µM and 0.29 µM, respectively.

With `CCCN(CCCNC(=O)CC(C)(C)C)C(=O)C1=Cc2nn(CCCCCN)cc2N=C(N)C1` [PAZ-9, 5-amino-2-(5-aminopentyl)-N-[3-(3,3-dimethylbutanoylamino)propyl]-N-propyl-6H-pyrazolo[4,3-b]azepine-7-carboxamide], the EC50 in data set [1] and in data set [2] was more than 9 µM in each case.

For `CCCN(CCC)C(=O)C1=Cc2c(cnn2Cc2ccc(CNC(=O)OC(C)(C)C)cc2)N=C(N)C1` [PAZ-13, tert-butyl N-[[4-[[5-amino-7-(dipropylcarbamoyl)-6H-pyrazolo[4,3-b]azepin-1-yl]methyl]phenyl]methyl]carbamate], the EC50 in data set [1] came to 0.881 µM; in data set [2], 3.84 µM.

Regarding `CCCN(CCCNC(=O)CC(C)(C)C)C(=O)C1=Cc2c(cnn2CCCCCNC(=O)OC(C)(C)C)N=C(N)C1` [PAZ-8, tert-butyl N-[5-[5-amino-7-[3-(3,3-dimethylbutanoylamino)propyl-propyl-carbamoyl]-6H-pyrazolo[4,3-b]azepin-1-yl]pentyl]carbamate], the EC50 in data set [1] is 2.75 µM; in data set [2], more than 9 µM.

With `CCCN(CCCNC(=O)OC1CCC1)C(=O)C1=Cc2c(cnn2CCCCCN)N=C(N)C1` [PAZ-15, cyclobutyl (3-(5-amino-1-(5-aminopentyl)-N-propyl-1,6-dihydropyrazolo[4,3-b]azepine-7-carboxamido)propyl)carbamate], the EC50 in data set [1] and in data set [2] was more than 9 µM throughout.

On to `CCCN(CCC)C(=O)C1=Cc2c(cnn2Cc2ccc(CN)cc2)N=C(N)C1` [PAZ-14, 5-amino-1-[[4-(aminomethyl)phenyl]methyl]-N,N-dipropyl-6H-pyrazolo[4,3-b]azepine-7-carboxamide], for which the results for the EC50 in data set [1] and in data set [2] were 5.59 µM and more than 9 µM, respectively.

For the molecule `CCCN(CCC)C(=O)C1=Cc2nn(CCCCCNC(=O)OC(C)(C)C)cc2N=C(N)C1` [PAZ-5], the EC50 in data set [1] and in data set [2] was more than 9 µM each time.

As for `CCCN(CCCNC(=O)CC(C)(C)C)C(=O)C1=Cc2c(cnn2CCCCCN)N=C(N)C1` [PAZ-7, 5-amino-1-(5-aminopentyl)-N-[3-(3,3-dimethylbutanoylamino)propyl]-N-propyl-6H-pyrazolo[4,3-b]azepine-7-carboxamide], the EC50 in data set [1] and in data set [2] was more than 9 µM in each case.

Take `CCCN(CCC)C(=O)C1=Cc2ccc(-c3cccc(S(=O)(=O)N4CC(CO)C4)c3)cc2N=C(N)C1` [C-2, reference compound]: the concentration giving a half-maximal response (EC50) in data set [1] is more than 9 µM; in data set [2], 1.59 µM.

As to `CCCN(CCC)C(=O)C1=Cc2c(cnn2CCCCCNC(=O)OC(C)(C)C)N=C(N)C1` [PAZ-4, tert-butyl N-[5-[5-amino-7-(dipropylcarbamoyl)-6H-pyrazolo[4,3-b]azepin-1-yl]pentyl]carbamate], the EC50 in data set [1] was 2.92 µM; in data set [2] it was 3.1 µM.

Regarding `CCCN(CCC)C(=O)C1=Cc2c(cnn2C)N=C(N)C1` [PAZ-1, 5-amino-1-methyl-N,N-dipropyl-1,6-dihydropyrazolo[4,3-b]azepine-7-carboxamide], the 50% effective concentration (EC50) in data set [1] is more than 9 µM; in data set [2] it was 4.15 µM.

Regarding `CCCN(CCC)C(=O)C1=Cc2c(cnn2CCCCCN)N=C(N)C1` [PAZ-2, 5-amino-1-(5-aminopentyl)-N,N-dipropyl-6H-pyrazolo[4,3-b]azepine-7-carboxamide], in data set [1], the EC50 is more than 9 µM and the “TLR7 activity relative to known TLR7 adjuvant C-1” value is given as “comparable TLR7 activity”. Moreover, in data set [2], the EC50 is 2.96 µM.

For the molecule `CCCN(CCC)C(=O)C1=Cc2nn(C)cc2N=C(N)C1` [PAZ-6, 5-amino-2-methyl-N,N-dipropyl-6H-pyrazolo[4,3-b]azepine-7-carboxamide], the EC50 was more than 9 µM in data set [1] and 4.05 µM in data set [2].

Regarding `CCCN(OCC)C(=O)C1=Cc2c(cnn2CCCCCNC(=O)OC(C)(C)C)N=C(N)C1` [PAZ-11, tert-butyl N-[5-[5-amino-7-[ethoxy(propyl)carbamoyl]-6H-pyrazolo[4,3-b]azepin-1-yl]pentyl]carbamate], in data set [1], the EC50 stood at 0.795 µM and the “TLR7 activity relative to known TLR7 adjuvant C-1” value was “comparable TLR7 activity”. For the same molecule, in data set [2], the EC50 amounted to 1.49 µM. Also, in data set [2] (HEK human TLR8 activity at 24 hours, FIG. 2), the “TLR8 potency relative to known TLR8 adjuvant C-2” value is given as “better TLR8 potency”. Besides, the “hydrophilicity relative to C-2” value in data set [3] was “improved hydrophilicity”.
